Assay results taken from patent US8741807B2 (priority 2011, dated 2014).
“Also recorded” adds a separate entry of the source.

Legend:
[1] = test system: leaf blade of rice plant (variety name: Nipponbare); experiment: Cell death spot formation on rice plant leaf blade after dropping spermidine derivative solution; format: in vivo; details: for formation of cell death spots: 1 mM aqueous solution (0.1% Tween 20), 5 μl dropped on rice leaf blade, visually evaluated; for severity of cell death compared with the compounds not introduced with hydroxyl group (Lau or ^1N Lau): same manner as Example 4, rice leaf blade
Text: (§1) It is known that spermidine treatment of leaf blades forms HR (Hypersensitive Response) like cell death spots in various plant species (Plant Physiol., 132(4), pp. 1973-1981, […]).
The results of examination for severity of cell death are shown in FIG. 12, and those for formation of cell death spots are shown in FIG. 13. The severity of cell death was enhanced by each of the compounds introduced with one hydroxyl group at the terminal carbon atom of the lauroyl group (HydLau: YIS12OH4N, 1NHydLau: YIS12OH1N) compared with the compounds not introduced with hydroxyl group (Lau or ^1N Lau).

Arabidopsis thaliana = experiment: Cell death in Arabidopsis thaliana by visual inspection; format: in vivo; details: same manner as Example 4, visual inspection, 3 and 7 days
Text: as §1

[2] = test system: leaf disks cut out from rice plant leaf blades; experiment: Phytoalexin production in rice plant leaf disks immersed in aqueous solution; details: 0.5 mM aqueous solution, 72 hours; not so severe compared with copper chloride
[3] = test system: rice blast fungus (Kyu89-246, MAFF101506, race 003.0); format: cell-based; details: for antifungal activity against the rice blast fungus: even at the 10 mM concentration; for formation of inhibition ring against the rice blast fungus: filter paper disks, 1 mM, 5 mM or 10 mM, 28° C., 5 to 6 days, light shielding
PR1 gene = PR1 gene expression enhancing action in Arabidopsis thaliana; format: in vivo; details: after 24 hours and 72 hours
[4] = test system: rice plants at the five-leaf stage; details: 5 mM, no inoculation

^1N-nonanoylspermidine [^1N Non] was tested. Which “formation of cell death spots” value [1] did it give?
The value was “formation of fine cell death spots”.

What about the “cell death in Arabidopsis thaliana” value (Arabidopsis thaliana) of the same compound?
Its value is “induced severe cell death”.

^1N-lauroylspermidine [^1N Lau] was tested. Which “formation of cell death spots” value [1] did it give?
The value was “formation of fine cell death spots”.

Which “formation of cell death spots” value [1] does the source give for ^4N-lauroylspermidine here?
The value was “formation of fine cell death spots; also recorded: potent cell death induction effect”.

What about the “browning of leaf disks” value [2] of the same compound?
Its value is “browning of leaf disks”.

And the phytoalexin accumulation [2]?
Its phytoalexin accumulation is “evident phytoalexin accumulation”.

^4N-nonanoylspermidine was tested. Which “formation of cell death spots” value [1] did it give?
Its value is “formation of fine cell death spots”.

Which “formation of cell death spots” value [1] does the source give for `NCCCCNCCCN` [Spd, Spermidine, reference compound] here?
Its value is “observed only in a part of the treated leaves”.

How did the “severity of cell death compared with the compounds not introduced with hydroxyl group (Lau or ^1N Lau)” value [1] turn out when `NCCCCN(CCCN)C(=O)CCCCCCCCCCCO` [YIS12OH4N, ^4N-(12-hydroroxylauroyl)-spermidine] was run?
Its value is “enhanced”.

What about the “antifungal activity against the rice blast fungus” value [3] of the same compound?
Its value is “did not have antifungal activity”.

What about the “formation of inhibition ring against the rice blast fungus” value [3] of the same compound?
The value was “Formation of inhibition ring was not observed”.

And the “cell death in Arabidopsis thaliana” value (Arabidopsis thaliana)?
The value was “induced severe cell death”.

What about the “PR1 gene expression enhancing action relative to 1NHydLau” value (PR1 gene) of the same compound?
Its value is “about 3 times”.

What about the “cell death spots when only the test compounds were sprayed” value [4] of the same compound?
The value was “cell death spots were not observed”.

`NCCCCNCCCNC(=O)CCCCCCCCCCCO` [YIS12OH1N, 1-N-(12-hydroroxylauroyl)-spermidine] was tested. Which “severity of cell death compared with the compounds not introduced with hydroxyl group (Lau or ^1N Lau)” value [1] did it give?
The value was “enhanced”.

And the “antifungal activity against the rice blast fungus” value [3]?
Its value is “did not have antifungal activity”.

And the “formation of inhibition ring against the rice blast fungus” value [3]?
Its value is “Formation of inhibition ring was not observed”.

What about the “cell death in Arabidopsis thaliana” value (Arabidopsis thaliana) of the same compound?
The value was “induced severe cell death”.

What about the “cell death spots when only the test compounds were sprayed” value [4] of the same compound?
The value was “cell death spots were not observed”.
